ChEMBL document CHEMBL1201862, “PubChem BioAssay data set” (2004)
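Test compounds were applied to cells in 96-well plates for 48 hours at 5 doses. GI50 marks 50% less growth.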 Activity calls are given as the source filed them. No stated cut-off is given here; in the data, active = GI50 up to about 1.1 µM and inactive = higher.

Legend:
Experiment in all cases: NCI anticancer screen, dose series, 48 h
HCT-116 = tested on: HCT-116
OVCAR-4 = tested on: OVCAR-4
K562 = tested on: K562
SK-MEL-2 = tested on: SK-MEL-2
UACC-62 = tested on: UACC-62
UO-31 = tested on: UO-31
HCT-15 = tested on: HCT-15
SK-MEL-5 = tested on: SK-MEL-5
NCI-H23 = tested on: NCI-H23
CCRF-CEM = tested on: CCRF-CEM
RPMI-8226 = tested on: RPMI-8226
RXF 393 = tested on: RXF 393
A549 = tested on: A549
NCI-H226 = tested on: NCI-H226
CAKI-1 = tested on: CAKI-1
SF-295 = tested on: SF-295
DMS-114 = tested on: DMS-114
NCI-H522 = tested on: NCI-H522
M19-MEL = tested on: M19-MEL
HCC 2998 = tested on: HCC 2998
EKVX = tested on: EKVX
NCI-H460 = tested on: NCI-H460
HL-60 = tested on: HL-60
M14 = tested on: M14
ACHN = tested on: ACHN
SF-268 = tested on: SF-268
KM12 = tested on: KM12
SR = tested on: SR
LOX IMVI = tested on: LOX IMVI
MOLT-4 = tested on: MOLT-4
KM-20L2 = tested on: KM-20L2
SNB-78 = tested on: SNB-78
SW-620 = tested on: SW-620
TK-10 = tested on: TK-10
OVCAR-5 = tested on: OVCAR-5
UACC-257 = tested on: UACC-257
HOP-62 = tested on: HOP-62
SF-539 = tested on: SF-539
COLO 205 = tested on: COLO 205
SNB-75 = tested on: SNB-75
LXFL 529 = tested on: LXFL 529
SNB-19 = tested on: SNB-19
DMS-273 = tested on: DMS-273
A498 = tested on: A498
DLD-1 = tested on: DLD-1
SN12C = tested on: SN12C
HT-29 = tested on: HT-29
IGROV-1 = tested on: IGROV-1
U-251 = tested on: U-251
OVCAR-8 = tested on: OVCAR-8
HOP-92 = tested on: HOP-92
SK-MEL-28 = tested on: SK-MEL-28
SK-OV-3 = tested on: SK-OV-3
RXF 631 = tested on: RXF 631
Malme-3M = tested on: Malme-3M
OVCAR-3 = tested on: OVCAR-3
786-0 = tested on: 786-0
XF498 = tested on: XF498
HOP-18 = tested on: HOP-18

`O=C(Nc1cccc(O)c1)C(=O)C(C(=O)c1ccccc1F)C1OC(=O)c2ccccc21` (stereo unspecified) was tested, and the GI50 (HCT-116) was 18 µM (inactive), the GI50 (OVCAR-4) was 23.9 µM (inactive) and the GI50 (K562) was 37.3 µM (inactive). For the same compound, the GI50 (SK-MEL-2) was 20.9 µM (inactive), the GI50 (UACC-62) was 16.9 µM (inactive) and the GI50 (UO-31) was 32.1 µM (inactive). For the same compound, the GI50 (HCT-15) was 18.3 µM, the GI50 (SK-MEL-5) was 36.1 µM (inactive) and the GI50 (NCI-H23) was 27 µM (inactive). The GI50 (CCRF-CEM) was 18.3 µM (inactive), the GI50 (RPMI-8226) was 23.4 µM (inactive) and the GI50 (RXF 393) was 18.5 µM (inactive). The GI50 (A549) was 29.4 µM (inactive), the GI50 (NCI-H226) was 17.2 µM (inactive) and the GI50 (CAKI-1) was 32.9 µM (inactive). The GI50 (SF-295) was 52.6 µM (inactive), the GI50 (DMS-114) was 13.8 µM (inactive) and the GI50 (NCI-H522) was 17.3 µM (inactive). For the same compound, the GI50 (M19-MEL) was 18.1 µM (inactive), the GI50 (HCC 2998) was 22.2 µM (inactive) and the GI50 (EKVX) was 34 µM (inactive). The GI50 (NCI-H460) was 29.4 µM (inactive), the GI50 (HL-60) was 28.7 µM (inactive) and the GI50 (M14) was 23.5 µM (inactive). For the same compound, the GI50 (ACHN) was 37.7 µM (inactive), the GI50 (SF-268) was 19.6 µM (inactive) and the GI50 (KM12) was 18.4 µM (inactive). For the same compound, the GI50 (SR) was 24.9 µM (inactive), the GI50 (LOX IMVI) was 22.9 µM (inactive) and the GI50 (MOLT-4) was 28.6 µM (inactive). For the same compound, the GI50 (KM-20L2) was 25.7 µM (inactive), the GI50 (SNB-78) was 24.2 µM (inactive) and the GI50 (SW-620) was 35.7 µM (inactive). The GI50 (TK-10) was 58.9 µM (inactive), the GI50 (OVCAR-5) was 57 µM (inactive) and the GI50 (UACC-257) was 84.5 µM (inactive). The GI50 (HOP-62) was 29.9 µM (inactive), the GI50 (SF-539) was 15.2 µM (inactive) and the GI50 (COLO 205) was 23.2 µM (inactive). For the same compound, the GI50 (SNB-75) was 17.5 µM (inactive), the GI50 (LXFL 529) was 16.4 µM (inactive) and the GI50 (SNB-19) was 19.9 µM (inactive). For the same compound, the GI50 (DMS-273) was 24.2 µM (inactive), the GI50 (A498) was 66.5 µM (inactive) and the GI50 (DLD-1) was 34.2 µM (inactive). For the same compound, the GI50 (SN12C) was 19.4 µM (inactive), the GI50 (HT-29) was 36.7 µM (inactive) and the GI50 (IGROV-1) was 38.7 µM (inactive). For the same compound, the GI50 (U-251) was 11.6 µM (inactive), the GI50 (OVCAR-8) was 14.6 µM (inactive) and the GI50 (HOP-92) was 68.1 µM (inactive). The GI50 (SK-MEL-28) was 31 µM (inactive), the GI50 (SK-OV-3) was 36.1 µM (inactive) and the GI50 (RXF 631) was 21.6 µM (inactive).
`COC(=O)/C(=N/NC(C)(C)C)C(C(=O)C=C(C)C)C(=O)C(=O)Nc1ccc(Cl)cc1C` (stereo unspecified) was tested, and the GI50 (HCT-116) was > 100 µM (inactive), the GI50 (Malme-3M) was > 100 µM (inactive) and the GI50 (OVCAR-4) was > 100 µM (inactive). The GI50 (K562) was > 100 µM (inactive), the GI50 (SK-MEL-2) was > 100 µM (inactive) and the GI50 (UACC-62) was > 100 µM (inactive). For the same compound, the GI50 (UO-31) was > 100 µM (inactive), the GI50 (HCT-15) was > 100 µM and the GI50 (SK-MEL-5) was > 100 µM (inactive). For the same compound, the GI50 (OVCAR-3) was > 100 µM (inactive), the GI50 (NCI-H23) was > 100 µM (inactive) and the GI50 (CCRF-CEM) was > 100 µM (inactive). The GI50 (RPMI-8226) was > 100 µM (inactive), the GI50 (786-0) was > 100 µM (inactive) and the GI50 (A549) was > 100 µM (inactive). For the same compound, the GI50 (NCI-H226) was 99.3 µM (inactive), the GI50 (CAKI-1) was > 100 µM (inactive) and the GI50 (SF-295) was > 100 µM (inactive). For the same compound, the GI50 (DMS-114) was > 100 µM (inactive), the GI50 (NCI-H522) was > 100 µM (inactive) and the GI50 (XF498) was > 100 µM (inactive). The GI50 (M19-MEL) was > 100 µM (inactive), the GI50 (HCC 2998) was > 100 µM (inactive) and the GI50 (EKVX) was > 100 µM (inactive). The GI50 (NCI-H460) was > 100 µM (inactive), the GI50 (HL-60) was > 100 µM (inactive) and the GI50 (M14) was > 100 µM (inactive). The GI50 (ACHN) was > 100 µM (inactive), the GI50 (SF-268) was > 100 µM (inactive) and the GI50 (KM12) was > 100 µM (inactive). For the same compound, the GI50 (SR) was > 100 µM (inactive), the GI50 (MOLT-4) was > 100 µM (inactive) and the GI50 (KM-20L2) was > 100 µM (inactive). The GI50 (SNB-78) was > 10 µM (inactive), the GI50 (SW-620) was > 100 µM (inactive) and the GI50 (TK-10) was > 100 µM (inactive). For the same compound, the GI50 (OVCAR-5) was > 100 µM (inactive), the GI50 (UACC-257) was > 100 µM (inactive) and the GI50 (HOP-62) was > 100 µM (inactive). The GI50 (SF-539) was > 100 µM (inactive), the GI50 (COLO 205) was > 100 µM (inactive) and the GI50 (LXFL 529) was > 100 µM (inactive). The GI50 (SNB-19) was > 100 µM (inactive), the GI50 (A498) was > 100 µM (inactive) and the GI50 (SN12C) was > 100 µM (inactive). The GI50 (HT-29) was > 100 µM (inactive), the GI50 (IGROV-1) was > 100 µM (inactive) and the GI50 (U-251) was > 100 µM (inactive). For the same compound, the GI50 (OVCAR-8) was > 100 µM (inactive), the GI50 (SK-MEL-28) was > 100 µM (inactive) and the GI50 (SK-OV-3) was > 100 µM (inactive).
With `CCOc1ccccc1N1C(=O)C(=O)C(c2nc3ccccc3s2)C(=O)C1=O` the GI50 (HCT-116) was 35.8 µM (inactive), the GI50 (Malme-3M) was 33.8 µM (inactive) and the GI50 (OVCAR-4) was 3.48 µM (inactive). The GI50 (SK-MEL-2) was > 100 µM (inactive), the GI50 (UACC-62) was > 100 µM (inactive) and the GI50 (UO-31) was 34.7 µM (inactive). For the same compound, the GI50 (HCT-15) was 76.9 µM, the GI50 (HOP-18) was 8.22 µM (inactive) and the GI50 (OVCAR-3) was 17.4 µM (inactive). For the same compound, the GI50 (NCI-H23) was > 100 µM (inactive), the GI50 (RPMI-8226) was > 100 µM (inactive) and the GI50 (RXF 393) was > 100 µM (inactive). For the same compound, the GI50 (786-0) was 5.36 µM (inactive), the GI50 (A549) was 20 µM (inactive) and the GI50 (NCI-H226) was 69.5 µM (inactive). For the same compound, the GI50 (CAKI-1) was 38.5 µM (inactive), the GI50 (SF-295) was 41.7 µM (inactive) and the GI50 (DMS-114) was > 100 µM (inactive). For the same compound, the GI50 (XF498) was > 100 µM (inactive), the GI50 (M19-MEL) was 69.5 µM (inactive) and the GI50 (HCC 2998) was > 100 µM (inactive). The GI50 (EKVX) was > 100 µM (inactive), the GI50 (NCI-H460) was 26.4 µM (inactive) and the GI50 (M14) was > 100 µM (inactive). For the same compound, the GI50 (ACHN) was 5.86 µM (inactive), the GI50 (SF-268) was 82.6 µM (inactive) and the GI50 (KM12) was 98.2 µM (inactive). The GI50 (LOX IMVI) was 55.5 µM (inactive), the GI50 (KM-20L2) was > 100 µM (inactive) and the GI50 (SNB-78) was > 100 µM (inactive). For the same compound, the GI50 (SW-620) was 58.9 µM (inactive), the GI50 (TK-10) was 24.5 µM (inactive) and the GI50 (OVCAR-5) was > 100 µM (inactive). The GI50 (UACC-257) was > 100 µM (inactive), the GI50 (HOP-62) was 46.8 µM (inactive) and the GI50 (SF-539) was > 100 µM (inactive). The GI50 (COLO 205) was > 100 µM (inactive), the GI50 (SNB-75) was 23.8 µM (inactive) and the GI50 (LXFL 529) was 35.5 µM (inactive). For the same compound, the GI50 (SNB-19) was 56.5 µM (inactive), the GI50 (DMS-273) was > 100 µM (inactive) and the GI50 (A498) was 16.6 µM (inactive). The GI50 (DLD-1) was > 100 µM (inactive), the GI50 (SN12C) was 79.4 µM (inactive) and the GI50 (HT-29) was 39.8 µM (inactive). The GI50 (IGROV-1) was 19.3 µM (inactive), the GI50 (U-251) was 49.3 µM (inactive) and the GI50 (OVCAR-8) was 41.5 µM (inactive). For the same compound, the GI50 (HOP-92) was 36.2 µM (inactive), the GI50 (SK-MEL-28) was > 100 µM (inactive) and the GI50 (SK-OV-3) was 30.9 µM (inactive).
